Laboratory results reported in the C3SDB collision cross section collection.

conditions: [M+H-H2O]+; instrument: TW; calibrated with polyalanine and drug standards

Compound	collision cross section (N2)
COc1cc([C@@H]2c3cc4c(cc3[C@H](O)[C@H]3COC(=O)[C@H]23)OCO4)cc(OC)c1OC [PODOFILOX]	190.1 Å²
CC1=CC(=O)[C@H]2C(C)(C)CCC[C@]2(C)[C@@]1(O)CCc1ccoc1 [SOLIDAGENONE]	170.6 Å²

same assay, conditions: [M+H]+; instrument: TW; calibrated with polyalanine and drug standards

Compound	collision cross section (N2)
Cc1ccc2c(c1)CC[C@H]1CC(=O)CC[C@]21C [13-METHYL-4,4-BISNOR-8,11,13-PODOCARPATRIEN-3-ONE]	148.1 Å²
COc1cc([C@@H]2c3cc4c(cc3[C@H](O)[C@H]3COC(=O)[C@H]23)OCO4)cc(OC)c1OC [PODOFILOX]	189.6 Å²
CC1(C)C(=O)[C@@H]2C[C@@]3(O)C4=CC(=O)O[C@@H](c5ccoc5)[C@]4(C)CCC3C(C)(C2=O)[C@H]1CC(=O)O (some centres undefined) [8-HYDROXYCARAPINIC ACID]	202.9 Å²
COc1ccc2c(c1)O[C@@H]1COc3cc(OC)c(OC)cc3[C@@H]1C2=O [MUNDOSERONE]	175.1 Å²
CC(=O)Nc1cc([As](=O)(O)O)ccc1O [ACETARSOL]	151.5 Å²
COc1cc2c(cc1OC)[C@@H]1C(=O)c3ccc4oc(C(C)C)cc4c3O[C@@H]1CO2 [ISOROTENONE]	195.2 Å²
CC(=O)OCC(=O)[C@@]12OC3(CCCC3)O[C@@H]1C[C@H]1[C@@H]3CCC4=CC(=O)C=C[C@]4(C)[C@@]3(F)[C@@H](O)C[C@@]12C [AMCINONIDE]	214.9 Å²
C[C@]12CCC(=O)C=C1C=C[C@@H]1[C@@H]2CC[C@@]2(C)[C@H]1CC[C@@]21CCC(=O)O1 [CANRENONE]	183 Å²
N[C@@H](C(=O)O)[C@@H](O)[C@H](O)[C@H](O)CO [GLUCOSAMINIC ACID]	138.8 Å²
CC(=O)OCC(=O)[C@@]1(OC(C)=O)[C@@H](C)C[C@H]2[C@@H]3C[C@H](F)C4=CC(=O)C=C[C@]4(C)[C@@]3(F)[C@@H](O)C[C@@]21C [DIFLORASONE DIACETATE]	209.5 Å²
CC1(C)CC2C1CC[C@]1(CBr)CCC3C(CC(=O)O)C(=O)O[C@@]32C1 (some centres undefined) [BROMO-3-HYDROXY-4-(SUCCIN-2-YL)-CARYOLANE gamma-LACTONE]	183.4 Å²
S=c1nc[nH]c2nc[nH]c12 [MERCAPTOPURINE]	125.5 Å²
Clc1ccc(CCC(Cn2ccnc2)Sc2c(Cl)cccc2Cl)cc1 (centres undefined) [BUTOCONAZOLE]	186.5 Å²
CC(=O)Oc1c(C)c(C)c2c(c1C)CCC(C)(CCCC(C)CCCC(C)CCCC(C)C)O2 (stereo not drawn) [alpha-TOCHOPHERYL ACETATE]	230.2 Å²
CC1=CC(=O)c2c(O)cccc2C1=O [PLUMBAGIN]	124.1 Å²
C[C@H]1C[C@@H]2[C@H]([C@@H](O)C[C@@]3(C)[C@H]2CC[C@]3(O)C(=O)CO)[C@@]2(C)C=CC(=O)C=C12 [METHYLPREDNISOLONE]	187.7 Å²
CCCCC(=O)O[C@]1(C(=O)CO)[C@@H](C)C[C@H]2[C@@H]3CCC4=CC(=O)C=C[C@]4(C)[C@@]3(F)[C@@H](O)C[C@@]21C [BETAMETHASONE VALERATE]	214 Å²
O=c1[nH]c2ccccc2n1CCCN1CCC(n2c(=O)[nH]c3cc(Cl)ccc32)CC1 [DOMPERIDONE]	201.8 Å²
NC(=O)c1ccc[n+]([C@@H]2O[C@H](COP(=O)([O-])OP(=O)(O)OC[C@H]3O[C@@H](n4cnc5c(N)ncnc54)[C@H](O)[C@@H]3O)[C@@H](O)[C@H]2O)c1 [NADIDE]	227 Å²
CC1(C)CC2C1CC[C@]1(C)CCC3C(C(=O)O)CC(=O)O[C@@]32C1 (some centres undefined) [3-HYDROXY-4-(SUCCIN-2-YL)-CARYOLANE delta-LACTONE]	174.9 Å²
CCOC(=O)C1=C[C@@H](OC(CC)CC)[C@H](NC(C)=O)[C@@H](N)C1 [OSELTAMIVIR]	180.7 Å²
CC(=O)Nc1c(I)c(NC(C)=O)c(I)c(C(=O)O)c1I [DIATRIZOIC ACID]	176.3 Å²
Nc1nnc(-c2cccc(Cl)c2Cl)c(N)n1 [LAMOTRIGINE]	150.6 Å²
O=C(O)CN(CCN(CC(=O)O)CC(=O)O)CCN(CC(=O)O)CC(=O)O [PENTETIC ACID]	180.2 Å²
COc1ccc(C(=O)N2CCCC2=O)cc1 [ANIRACETAM]	146.6 Å²

Results, then the compound that gave them:

collision cross section (N2)	Compound
222.7 Å²	COc1c(-c2coc3cc4c(cc3c2=O)CC(OC(C)=O)C(C)(C)O4)ccc2c1C=CC(C)(C)O2 (centres undefined) [MUNDULONE ACETATE]
146.3 Å²	O=c1c(O)c(-c2ccccc2)oc2ccccc12 [3-HYDROXYFLAVONE]
130.9 Å²	O=C(O)c1cc(O)c(O)c(O)c1 [GALLIC ACID]
199.2 Å²	CCCCc1nc(Cl)c(CO)n1Cc1ccc(-c2ccccc2-c2nn[nH]n2)cc1 [LOSARTAN]
177.9 Å²	COc1ccc2c(c1)OCC(Cc1ccc(OC)c(OC(C)=O)c1)C2=O (centres undefined) [DEOXYSAPPANONE B 7,3'-DIMETHYL ETHER ACETATE]
185.1 Å²	CCCCNc1cc(C(=O)O)cc(S(N)(=O)=O)c1Oc1ccccc1 [BUMETANIDE]
182 Å²	O=c1oc2ccccc2c(O)c1Cc1c(O)c2ccccc2oc1=O [DICUMAROL]
145.3 Å²	O=C(O)c1cc2cc(F)ccc2[nH]1 [5-FLUOROINDOLE-2-CARBOXYLIC ACID]
189.7 Å²	NCCCC[C@H](N[C@@H](CCc1ccccc1)C(=O)O)C(=O)N1CCC[C@H]1C(=O)O [LISINOPRIL]
120.3 Å²	O=C(O)c1cccnc1 [NIACIN]
156.3 Å²	O=C(Nc1ccc(C(=O)O)c(O)c1)c1ccccc1 [BENZOYLPAS]
195 Å²	O=C(CCCN1CC=C(n2c(=O)[nH]c3ccccc32)CC1)c1ccc(F)cc1 [DROPERIDOL]
156.3 Å²	Cc1ccnc(NS(=O)(=O)c2ccc(N)cc2)n1 [SULFAMERAZINE]
202 Å²	CCCCC(=O)N(Cc1ccc(-c2ccccc2-c2nn[nH]n2)cc1)[C@H](C(=O)O)C(C)C [VALSARTAN]
191.5 Å²	OCCOCCN1CCN(C2=Nc3ccccc3Sc3ccccc32)CC1 [QUETIAPINE]
158.2 Å²	Nc1ccc(S(=O)(=O)NC(=O)c2ccccc2)cc1 [SULFABENZAMIDE]
144.5 Å²	O=C(O)c1ccccc1Nc1ccccc1 [N-PHENYLANTHRANILIC ACID]
170.8 Å²	Cc1cc(NC(=O)C2=C(O)c3ccccc3S(=O)(=O)N2C)no1 [ISOXICAM]
155.3 Å²	Nc1ccc(C(=O)NCC(=O)O)cc1 [AMINOHIPPURIC ACID]

same assay, conditions: [M+Na]+; instrument: TW; calibrated with polyalanine and drug standards

collision cross section (N2)	Compound
164.4 Å²	OC[C@H]1O[C@@H](Oc2ccc(O)cc2)[C@H](O)[C@@H](O)[C@@H]1O [ARBUTIN]
234.8 Å²	C[C@H]1[C@H](C)CC[C@]2(C(=O)O)CC[C@]3(C)C(=CC[C@@H]4[C@@]5(C)C[C@@H](O)[C@H](O)[C@@](C)(CO)[C@@H]5[C@H](O)C[C@]43C)[C@H]12 [MADECASSIC ACID]

Compound	collision cross section (N2)
CC1(C)C(C=C(Cl)Cl)C1C(=O)OC(C#N)c1cccc(Oc2ccccc2)c1 (centres undefined) [CYPERMETHRIN]	200.6 Å²
